Measurements: PMC8773749, “Combinatorial Virtual Screening Revealed a Novel Scaffold for TNKS Inhibition to Combat Colorectal Cancer” (Biomedicines, 2022)

Experiments:
TNKS-1 [1] = target: T1, TNKS-1 (Homo sapiens, UniProt O95271); experiment: TNKS-1 histone ribosylation colorimetric assay, single concentration […]; type: biochemical
TNKS-1 [2] = target: T1, TNKS-1; experiment: TNKS-1 histone ribosylation colorimetric assay (BPS Bioscience kit); type: biochemical

T1 sequence (O95271 whole entry): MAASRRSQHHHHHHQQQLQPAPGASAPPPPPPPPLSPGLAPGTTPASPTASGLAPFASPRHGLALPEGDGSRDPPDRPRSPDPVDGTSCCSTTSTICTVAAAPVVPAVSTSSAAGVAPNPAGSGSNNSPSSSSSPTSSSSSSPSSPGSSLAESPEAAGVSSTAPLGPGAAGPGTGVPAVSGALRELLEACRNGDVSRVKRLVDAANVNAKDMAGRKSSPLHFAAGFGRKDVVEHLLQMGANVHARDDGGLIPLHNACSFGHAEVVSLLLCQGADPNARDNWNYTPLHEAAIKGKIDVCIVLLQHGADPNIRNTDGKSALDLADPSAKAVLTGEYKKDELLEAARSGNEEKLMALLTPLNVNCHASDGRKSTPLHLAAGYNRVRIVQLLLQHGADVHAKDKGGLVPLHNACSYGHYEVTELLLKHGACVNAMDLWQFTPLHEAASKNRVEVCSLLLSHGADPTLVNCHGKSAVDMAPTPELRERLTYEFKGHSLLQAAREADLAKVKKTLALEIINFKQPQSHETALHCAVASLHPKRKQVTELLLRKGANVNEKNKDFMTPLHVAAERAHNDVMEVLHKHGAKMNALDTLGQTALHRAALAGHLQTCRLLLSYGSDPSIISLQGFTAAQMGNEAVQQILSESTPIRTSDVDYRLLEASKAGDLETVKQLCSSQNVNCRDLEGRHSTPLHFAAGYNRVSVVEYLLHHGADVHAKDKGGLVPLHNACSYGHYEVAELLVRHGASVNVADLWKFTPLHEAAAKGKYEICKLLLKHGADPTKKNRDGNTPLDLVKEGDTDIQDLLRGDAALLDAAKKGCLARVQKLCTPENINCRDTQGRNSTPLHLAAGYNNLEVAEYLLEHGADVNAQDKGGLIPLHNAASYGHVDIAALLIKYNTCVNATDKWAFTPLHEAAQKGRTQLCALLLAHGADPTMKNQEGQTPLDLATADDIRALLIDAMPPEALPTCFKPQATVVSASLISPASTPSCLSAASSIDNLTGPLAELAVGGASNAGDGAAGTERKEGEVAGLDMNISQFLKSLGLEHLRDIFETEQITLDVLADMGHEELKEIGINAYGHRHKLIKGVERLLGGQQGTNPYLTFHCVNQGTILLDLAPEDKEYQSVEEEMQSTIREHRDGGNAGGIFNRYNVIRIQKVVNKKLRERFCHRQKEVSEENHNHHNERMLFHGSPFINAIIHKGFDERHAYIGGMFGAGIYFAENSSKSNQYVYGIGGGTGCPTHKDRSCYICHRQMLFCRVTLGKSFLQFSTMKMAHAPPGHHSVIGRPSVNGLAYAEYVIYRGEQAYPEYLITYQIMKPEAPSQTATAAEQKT

| SMILES | % of Inhibition at 10 μM / TNKS-1 ^c (TNKS-1 [1]) | IC50 (TNKS-1 [2]) |
| --- | --- | --- |
| CN(C)c1ccc2c(c1)oc(=O)c1ccccc12 [NSC102371] | 88.54 | – |
| COc1ccc(-c2cc3ccccc3c(=O)o2)cc1 [NSC123012] | 50.92 | – |
| Cc1c(C)c2ccc(N(C)C)cc2[nH]c1=O [NSC295092] | – | 66.1 nM |
| CN(C)c1ccc2c3c(c(=O)oc2c1)CCC3 [NSC315247] | 60.07 | – |
| Cc1c(Cl)c2ccc(N(C)C)cc2[nH]c1=O [NSC319963] | – | 21.9 nM |
